Measured values from patent US6737383B1, “Herbicidal oxadiazolidines” (priority 1999, dated 2004).

Experiments:
wheat = experiment: Test B pre/postemergence wheat; assay type: in vivo, Triticum aestivum
Summary of the method: (§1)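 Test chemicals in a non-phytotoxic solvent mixture with surfactant were sprayed preemergence onto planted seeds and postemergence onto plants 2 to 18 cm tall (1- to 4-leaf stage). After twelve to sixteen days in a greenhouse, injury was visually rated against untreated controls from 0 (no effect) to 10 (complete control).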

velvetleaf = experiment: Test B pre/postemergence velvetleaf; assay type: in vivo, Abutilon theophrasti
Summary of the method: as §1

wild oat = experiment: Test B pre/postemergence wild oat; assay type: in vivo, Avena fatua
Summary of the method: as §1

smallflower flatsedge = experiment: Test B flood test smallflower flatsedge; assay type: in vivo, Cyperus difformis
Summary of the method: (§2)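 Each value is a visual injury score relative to controls, with 10 meaning complete control and 0 no effect. Evaluation took place twelve to sixteen days after the 2-leaf-stage plants were treated and kept in the greenhouse.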

crabgrass = experiment: Test B pre/postemergence crabgrass; assay type: in vivo, Digitaria sanguinalis
Summary of the method: as §1

rice = experiment: Test B flood test rice; assay type: in vivo, Oryza sativa
Summary of the method: as §2

bamyardgrass = experiment: Test B flood test barnyardgrass; assay type: in vivo, Echinochloa crus-galli
Summary of the method: as §2

cocklebur = experiment: Test B pre/postemergence cocklebur; assay type: in vivo, Xanthium strumarium
Summary of the method: as §1

pigweed = experiment: Test B pre/postemergence pigweed; assay type: in vivo, Amaranthus retroflexus
Summary of the method: as §1

soybean = experiment: Test B pre/postemergence soybean; assay type: in vivo, Glycine max
Summary of the method: as §1

bedstraw = experiment: Test B pre/postemergence bedstraw; assay type: in vivo, Galium aparine
Summary of the method: as §1

giant foxtail = experiment: Test B pre/postemergence giant foxtail; assay type: in vivo, Setaria faberii
Summary of the method: as §1

morningglory = experiment: Test B pre/postemergence morningglory; assay type: in vivo, Ipomoea hederacea
Summary of the method: as §1

corn = experiment: Test B pre/postemergence corn; assay type: in vivo, Zea mays
Summary of the method: as §1

surinam grass = experiment: Test B pre/postemergence surinam grass; assay type: in vivo, Brachiaria decumbens
Summary of the method: as §1

blackgrass = experiment: Test B pre/postemergence blackgrass; assay type: in vivo, Alopecurus myosuroides
Summary of the method: as §1

[1] = Postemergence, Rate 62 g/ha, scale of 0 to 10, 0 is no effect, 10 is complete control
[2] = Postemergence, Rate 500 g/ha, scale of 0 to 10 where 0 is no effect and 10 is complete control
[3] = Preemergence, Rate 62 g/ha, scale 0 to 10 (0 no effect, 10 complete control)
[4] = Preemergence, Rate 125 g/ha, scale 0 to 10, 0 is no effect, 10 is complete control
[5] = Preemergence, Rate 500 g/ha, scale of 0 to 10 where 0 is no effect and 10 is complete control
[6] = Rate 250 g/ha, Postemergence, scale of 0 to 10 where 0 is no effect and 10 is complete control
[7] = Rate 62 g/ha, flood test species, Pre-emergence, visual evaluation after twelve to sixteen days
[8] = Rate 125 g/ha, under heading Pre-emergence, flood test species, visual evaluation after twelve to sixteen days
[9] = Rate 250 g/ha, Pre-emergence (flood test species), scale 0 to 10, 0 is no effect, 10 is complete control
[10] = Rate 500 g/ha, Pre-emergence section of Table B, 0 to 10 scale (0 no effect, 10 complete control)
[11] = Postemergence, Rate 125 g/ha, scale 0 to 10, 0 is no effect, 10 is complete control

Structure (SMILES): CC(C)N(C(=O)n1oc(=O)n(CCC2OCCCO2)c1=O)c1ccccc1 [Compound 561]
- Wheat plant response rating (wheat; [1]): 0
- Plant response rating, Wheat (wheat; [2]): 7
- Wheat plant response rating (wheat; [3]): 0
- Wheat plant response rating (wheat; [4]): 4
- Wheat plant response rating (0 to 10 scale) (wheat; Preemergence, Rate 250 g/ha): 6
- Wheat plant response rating (wheat; [5]): 9
- Plant response rating, Wheat (wheat; [6]): 3
- Velvetleaf plant response rating (velvetleaf; [1]): 0
- Plant response rating, Velvetleaf (velvetleaf; [2]): 0
- Velvetleaf plant response rating (velvetleaf; [3]): 0
- Velvetleaf plant response rating (velvetleaf; [4]): 0
- Velvetleaf plant response rating (0 to 10 scale) (velvetleaf; Preemergence, Rate 250 g/ha): 0
- Velvetleaf plant response rating (velvetleaf; [5]): 2
- Plant response rating, Velvetleaf (velvetleaf; [6]): 0
- Wild oats plant response rating (wild oat; [1]): 0
- Plant response rating, Wild oats (wild oat; [2]): 2
- Wild oats plant response rating (wild oat; [3]): 0
- Wild oats plant response rating (wild oat; [4]): 2
- Wild oats plant response rating (0 to 10 scale) (wild oat; Preemergence, Rate 250 g/ha): 5
- Wild oats plant response rating (wild oat; [5]): 9
- Plant response rating, Wild oats (wild oat; [6]): 2
- Plant response rating, S. Flatsedge (0 to 10 scale, 0 is no effect, 10 is complete control) (smallflower flatsedge; [7]): 0
- S. Flatsedge plant response rating (0 to 10 scale, 0 is no effect, 10 is complete control) (smallflower flatsedge; [8]): 0
- S. Flatsedge plant response rating (smallflower flatsedge; [9]): 0
- S. Flatsedge plant response rating (smallflower flatsedge; [10]): 0
- Crabgrass plant response rating (crabgrass; [1]): 2
- Crabgrass plant response rating (crabgrass; [11]): 3
- Plant response rating, Crabgrass (crabgrass; [2]): 9
- Crabgrass plant response rating (crabgrass; [3]): 9
- Crabgrass plant response rating (crabgrass; [4]): 9
- Crabgrass plant response rating (0 to 10 scale) (crabgrass; Preemergence, Rate 250 g/ha): 9
- Crabgrass plant response rating (crabgrass; [5]): 9
- Plant response rating, Crabgrass (crabgrass; [6]): 4
- Plant response rating, Rice (0 to 10 scale, 0 is no effect, 10 is complete control) (rice; [7]): 0
- Rice plant response rating (0 to 10 scale, 0 is no effect, 10 is complete control) (rice; [8]): 0
- Rice plant response rating (rice; [9]): 0
- Rice plant response rating (rice; [10]): 0
- Plant response rating, Barnyardgrass (0 to 10 scale, 0 is no effect, 10 is complete control) (bamyardgrass; [7]): 0
- Barnyardgrass plant response rating (0 to 10 scale, 0 is no effect, 10 is complete control) (bamyardgrass; [8]): 0
- Barnyardgrass plant response rating (bamyardgrass; [9]): 0
- Barnyardgrass plant response rating (bamyardgrass; [10]): 0
- Cocklebur plant response rating (cocklebur; [1]): 0
- Cocklebur plant response rating (cocklebur; [11]): 0
- Plant response rating, Cocklebur (cocklebur; [2]): 0
- Cocklebur plant response rating (cocklebur; [3]): 0
- Cocklebur plant response rating (cocklebur; [4]): 0
- Cocklebur plant response rating (0 to 10 scale) (cocklebur; Preemergence, Rate 250 g/ha): 0
- Cocklebur plant response rating (cocklebur; [5]): 0
- Plant response rating, Cocklebur (cocklebur; [6]): 0
- Redroot pigweed plant response rating (pigweed; [1]): 0
- Plant response rating, Redroot pigweed (pigweed; [2]): 7
- Redroot pigweed plant response rating (pigweed; [3]): 3
- Redroot pigweed plant response rating (pigweed; [4]): 5
- Redroot pigweed plant response rating (0 to 10 scale) (pigweed; Preemergence, Rate 250 g/ha): 9
- Redroot pigweed plant response rating (pigweed; [5]): 9
- Plant response rating, Redroot pigweed (pigweed; [6]): 0
- Soybean plant response rating (soybean; [1]): 2
- Plant response rating, Soybean (soybean; [2]): 5
- Soybean plant response rating (soybean; [3]): 0
- Soybean plant response rating (soybean; [4]): 0
- Soybean plant response rating (0 to 10 scale) (soybean; Preemergence, Rate 250 g/ha): 0
- Soybean plant response rating (soybean; [5]): 2
- Plant response rating, Soybean (soybean; [6]): 3
- Bedstraw plant response rating (bedstraw; [1]): 0
- Plant response rating, Bedstraw (bedstraw; [2]): 7
- Bedstraw plant response rating (bedstraw; [3]): 0
- Bedstraw plant response rating (bedstraw; [4]): 0
- Bedstraw plant response rating (0 to 10 scale) (bedstraw; Preemergence, Rate 250 g/ha): 2
- Bedstraw plant response rating (bedstraw; [5]): 8
- Giant foxtail plant response rating (giant foxtail; [1]): 2
- Giant foxtail plant response rating (giant foxtail; [11]): 4
- Plant response rating, Giant foxtail (giant foxtail; [2]): 8
- Giant foxtail plant response rating (giant foxtail; [3]): 0
- Giant foxtail plant response rating (giant foxtail; [4]): 6
- Giant foxtail plant response rating (0 to 10 scale) (giant foxtail; Preemergence, Rate 250 g/ha): 6
- Giant foxtail plant response rating (giant foxtail; [5]): 7
- Plant response rating, Giant foxtail (giant foxtail; [6]): 7
- Morningglory plant response rating (morningglory; [1]): 1
- Morningglory plant response rating (morningglory; [11]): 4
- Plant response rating, Morningglory (morningglory; [2]): 9
- Morningglory plant response rating (morningglory; [3]): 0
- Morningglory plant response rating (morningglory; [4]): 0
- Morningglory plant response rating (0 to 10 scale) (morningglory; Preemergence, Rate 250 g/ha): 2
- Morningglory plant response rating (morningglory; [5]): 4
- Plant response rating, Morningglory (morningglory; [6]): 5
- Corn plant response rating (corn; [1]): 0
- Corn plant response rating (corn; [11]): 0
- Plant response rating, Corn (corn; [2]): 3
- Corn plant response rating (corn; [3]): 0
- Corn plant response rating (corn; [4]): 0
- Corn plant response rating (0 to 10 scale) (corn; Preemergence, Rate 250 g/ha): 2
- Corn plant response rating (corn; [5]): 5
- Plant response rating, Corn (corn; [6]): 0
- B. signalgrass plant response rating (surinam grass; [1]): 0
- B. signalgrass plant response rating (surinam grass; [11]): 0
- Plant response rating, B. signalgrass (surinam grass; [2]): 8
- B. signalgrass plant response rating (surinam grass; [3]): 4
- B. signalgrass plant response rating (surinam grass; [4]): 4
- B. signalgrass plant response rating (0 to 10 scale, 0 is no effect, 10 is complete control) (surinam grass; Preemergence, Rate 250 g/ha): 8
- B. signalgrass plant response rating (surinam grass; [5]): 9
- Plant response rating, B. signalgrass (surinam grass; [6]): 6
- Blackgrass plant response rating (blackgrass; [1]): 2
- Blackgrass plant response rating (blackgrass; [11]): 5
- Plant response rating, Blackgrass (blackgrass; [2]): 6
- Blackgrass plant response rating (blackgrass; [3]): 5
- Blackgrass plant response rating (blackgrass; [4]): 7
- Blackgrass plant response rating (0 to 10 scale) (blackgrass; Preemergence, Rate 250 g/ha): 9
- Blackgrass plant response rating (blackgrass; [5]): 9
- Plant response rating, Blackgrass (blackgrass; [6]): 6
